What is called IC50 is the concentration at which inhibition is half-maximal.

We go through 30 compounds from patent US11396501B2, “Heteroaryl compounds as CXCR4 inhibitors, composition and method using the same” (CGENETECH (SUZHOU, CHINA) CO., LTD., priority 2017, dated 2022).

Assay [1] deals with T1, CXCR4 (Homo sapiens, UniProt P61073). The assay can be described thus: HPB-ALL CXCR4 competitive binding assay (12G5 binding assay). The conditions noted are these: HPB-ALL cells; competition with APC-conjugated anti-human CXCR4 clone 12G5 at its EC80; 4° C. for 3 h; FACS. On the set-up: HPB-ALL cells were maintained in RPMI-1640 (Gibico) supplemented with 10% FBS (Hyclone); endogenous in cells; host or cells: HPB-ALL cells. As to the method: HPB-ALL CXCR4 Competitive Binding Assay
HPB-ALL cells were maintained in RPMI-1640 (Gibico) supplemented with 10% FBS (Hyclone). APC-conjugated anti-human CXCR4 was from Sungene. EC80 was first determined for 12G5 binding to CXCR4. Then the compounds for testing were added into 96-well plates serially diluted at a ratio of 1:3. Cells were washed once with ice-cold assay buffer (DPBS+2% HI-FBS) and then re-suspended in the same buffer at a final concentration of 1×10^6/mL. Cell suspension was then added into the wells and with the addition of APC-conjugated anti-human CXCR4 clone 12G5 at its EC80 determined. The mix of cell, compounds and APC-conjugated anti-human CXCR4 were incubated at 4° C. for 3 h before addition of 100 μL of 4% PFA. Cells were then washed once and resuspended in assay buffer and examined by FACS. The percent (%) effect at each concentration of compound was calculated and relative to the amount of calcium produced in the positive and negative control wells contained within each assay plate. The concentrations and % effect values for tested compounds were plotted and the concentration of compound required for 50% effect (IC50) was determined. Tables 2 summarize results of the CXCR4 competitive binding assay for selected compounds disclosed in the present disclosure. FIGS. 1-2 depict the IC50 curves of compounds A42 and A43.

Assay [2] has as its target T1, CXCR4. Nature of the assay: FLIPR Tetra calcium mobilization assay. It counts as cell-based. The conditions noted are these: Human CD4+ T-Cells; CXCL12 added; FLIPR Calcium 4 assay kit. As for the experimental part: FLIPR Tetra Calcium Mobilization Assay The FLIPR Tetra calcium mobilization assay was performed by HD Bioscience. Briefly, The Molecular Devices, Fluorescent Imaging Plate Reader (FLIPR) Tetra was used in this assay. Excitation was achieved through unique placement of LED's within the instrument and emission captured by a CCD camera (EMCCD camera for FI and ICCD camera for luminescence). The homogeneous FLIPR Calcium 4 assay kit from Molecular Devices was used as the fluorescence reagent. Compounds were solubilized in 100% dimethyl sulfoxide (DMSO) to a concentration of 30 mM. A 10-point, 4-fold, intermediate dilution series was created in 100% DMSO with a top concentration of 4 mM and a bottom concentration of 0.01 μM. A near assay ready, direct dilution plate ([…]) was prepared from this compound dilution plate by transferring 1 μL of each dilution of compound in 100% DMSO to a Greiner #781201 plate. In addition, each […] plate also contained positive and negative control wells to define the upper and lower limits for the assay signal. The final assay concentration range of compound was 10 μM to 0.035 nM in 0.5% DMSO. Human CD^4+ T-Cells were isolated from human whole blood and subsequently activated and expanded using a CD3/CD28 expansion kit (Life Technologies). The cells were frozen in ThermoFisher-formulated Recovery Cell Culture Freezing Medium containing 10% Dimethyl sulfoxide (DMSO) and 10% Fetal Bovine Serum (FBS) (ThermoFisher Catalog No. 10100147). When used, cells were resuspended using room temperature 1× HBSS/20 mM HEPES/0.005% P-104 assay buffer, adjusted the volume of the suspension to achieve a cell concentration of 2.5×10^6 cells/mL. 2× Calcium 4 dye (20 μL/well) were added and the mixture were centrifuged briefly ( 10 s) and stopped when it reached 1000 rpm. The plates were allowed to equilibrate before compounds and CXCL12 were added to the plates. The raw data were analyzed using Abase. The percent (%) effect at each concentration of compound was calculated by Abase and was based on and relative to the amount of calcium produced in the positive and negative control wells contained within each assay plate. The concentrations and % effect values for tested compounds were plotted by Abase and the concentration of compound required for 50% effect (IC50) was determined with a four-parameter logistic dose response equation. FIGS. 3 and 4 summarize the results of Compounds A78 and A83 in the calcium mobilization assay.

T1 sequence (P61073 whole entry): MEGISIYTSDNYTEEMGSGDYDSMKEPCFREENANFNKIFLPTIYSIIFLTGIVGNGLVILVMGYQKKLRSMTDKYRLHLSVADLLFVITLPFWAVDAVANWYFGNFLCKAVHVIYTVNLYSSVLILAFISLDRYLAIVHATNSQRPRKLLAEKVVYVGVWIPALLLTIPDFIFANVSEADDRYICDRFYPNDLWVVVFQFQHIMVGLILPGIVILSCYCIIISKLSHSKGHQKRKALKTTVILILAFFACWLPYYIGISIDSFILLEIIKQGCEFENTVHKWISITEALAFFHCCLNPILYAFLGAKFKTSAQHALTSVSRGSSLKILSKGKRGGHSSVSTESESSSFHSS

In the case of `Cc1nc(CN(C)c2cc(F)c(F)c3cccnc23)cc(N2CCN(C)CC2)n1` [Compound D20], the half-inhibitory concentration (IC50) at CXCR4 [1] was 675 nM; on CXCR4 [2], 3.1 nM. Taken in the same sequence, the figures for `Cc1nc(CN(C)c2c(C)ccc3cccnc23)cc(N2CCN(C)CC2)n1` [Compound D14] were 57 nM and 0.3 nM. Take `Cc1nc(CN(C)C2=C(F)CCc3cccnc32)cc(N2CCN(C)CC2)n1` [Compound D1, 7-fluoro-N-methyl-N-((2-methyl-6-(4-methylpiperazin-1-yl)pyrimidin-4-yl)methyl)-5,6-dihydroquinolin-8-amine]: the IC50 on CXCR4 [1] was found to be 18 nM; on CXCR4 [2], 1.2 nM. Take `Cc1nc(CN(C)c2cccc3cccnc23)cc(N2CCN(C)[C@H](C)C2)n1` [Compound D4]: the IC50 is 55 nM at CXCR4 [1] and 0.14 nM at CXCR4 [2]. For `Cc1nc(CN(C)c2cccc3cccnc23)cc(N2CCN(C)CC2)n1` [Compound D2, N-methyl-N-((2-methyl-6-(4-methylpiperazin-1-yl)pyrimidin-4-yl)methyl)quinolin-8-amine] the same measures were 65 nM and 0.24 nM. Taken in the same sequence, the figures for `Cc1nc(CN(C)[C@@H](C)c2ccccn2)cc(N2CCN(C)CC2)n1` [Compound A75, (S)-N-methyl-N-((2-methyl-6-(4-methylpiperazin-1-yl)pyrimidin-4-yl)methyl)-1-(pyridin-2-yl)ethan-1-amine] were 15 nM and 0.09 nM. For `CCN(Cc1cc(N2CCN(C)CC2)nc(C)n1)c1cccc2cccnc12` [Compound D25] the same measures were 151 nM and 16 nM. Turning to `Cc1nc(CN(CCCCN)c2cccc3cccnc23)cc(N2CCN(C)CC2)n1` [Compound D28], the IC50 at CXCR4 [1] came out at 338 nM; on CXCR4 [2], 0.21 nM.

In the case of `Cc1nc(CN(C)c2cccc3cccnc23)c(F)c(N2CCN(C)CC2)n1` [Compound D34], the IC50 at CXCR4 [2] was found to be 0.83 nM. Same read-out and setting: for `Cc1nc(CN(C)c2c(Br)ccc3cccnc23)cc(N2CCN(C)CC2)n1` [Compound D49] the value was 4.5 nM; for `Cc1nc(CN(C)c2ccc(S(C)(=O)=O)c3cccnc23)cc(N2CCN(C)CC2)n1` [Compound D43, N-methyl-N-((2-methyl-6-(4-methylpiperazin-1-yl)pyrimidin-4-yl)methyl)-5-(methylsulfonyl)quinolin-8-amine], 3380 nM; for `C[C@@H](c1ccccn1)N(C)Cc1cc(N2CCN(C)CC2)nc(CO)n1` [Compound A81], 4.5 nM. On to `Cc1nc(CN(C)c2cccc3cccnc23)c(Cl)c(N2CCN(C)CC2)n1` [Compound D35], for which the IC50 on CXCR4 [2] came to 1.2 nM. On the same count and under the same terms, for `Cc1nc(CN(C)C2CCOc3cccnc32)cc(N2CCN(C)CC2)n1` (centres unmarked) [Compound A90] the value was 0.046 nM.

As to `Cc1nc(CN(C)c2c(C#N)ccc3cccnc23)cc(N2CCN(C)CC2)n1` [Compound D50, 8-(methyl((2-methyl-6-(4-methylpiperazin-1-yl)pyrimidin-4-yl)methyl)amino)quinoline-7-carbonitrile], the IC50 at CXCR4 [2] was 14 nM.

For the compound `CN1CCN(c2cc(CN(C)C3CCCc4cccnc43)ncn2)CC1` (centres unmarked) [Compound A1, N-methyl-N-((6-(4-methylpiperazin-1-yl)pyrimidin-4-yl)methyl)-5,6,7,8-tetrahydroquinolin-8-amine], the IC50 on CXCR4 [1] amounted to 45 nM; on CXCR4 [2], 4.5 nM. `Cc1nc(CN(C)[C@H]2CCCc3cccnc32)c(C)c(N2CCN(C)CC2)n1` [Compound A61]: the IC50 is 8.8 nM on CXCR4 [1] and 0.024 nM on CXCR4 [2]. Take `CN1CCCN(c2cc(CN(C)C3CCCc4cccnc43)ncn2)CC1` (centres unmarked) [Compound A22]: the half-inhibitory concentration (IC50) was 32 nM on CXCR4 [1] and 3.4 nM at CXCR4 [2]. Take `Cc1nc(CN(C)c2ccc(NS(C)(=O)=O)c3cccnc23)cc(N2CCN(C)CC2)n1` [Compound D57, N-(8-(methyl((2-methyl-6-(4-methylpiperazin-1-yl)pyrimidin-4-yl)methyl)amino)quinolin-5-yl)methanesulfonamide]: the concentration for half-maximal inhibition (IC50) at CXCR4 [2] stood at 2880 nM. On to `Cc1nc(CN(C)c2cccc3cccnc23)c(C#N)c(N2CCN(C)CC2)n1` [Compound D36], for which the values for the IC50 at CXCR4 [1] and at CXCR4 [2] were 1170 nM and 3.6 nM, respectively. As for `Cc1nc(CN(C)c2cc(F)cc3cccnc23)cc(N2CCN(C)CC2CO)n1` (centres unmarked) [Compound D52], at CXCR4 [2], the IC50 was 4.5 nM.

Turning to `Cc1nc(CN(C)c2c(F)ccc3cccnc23)cc(N2CCN(C)CC2)n1` [Compound D17], the IC50 at CXCR4 [2] amounted to 74 nM. The same measure, in the same setting: for `CN1CCN(c2cc(CN(C)c3cccc4cccnc34)nc(CO)n2)CC1` [Compound D54] the value was 7.2 nM; for `Cc1nc(CN(C)c2c(C(F)(F)F)ccc3cccnc23)cc(N2CCN(C)CC2)n1` [Compound D48], 928 nM; for `Cc1nc(CN(C)[C@@H](C)c2ccccn2)cc(N2CCN3CCC[C@@H]3C2)n1` [Compound A78], 0.062 nM.

For `Cc1nc(CN2CCC[C@H]2c2ncccc2C)cc(N2CCC(N(C)C)CC2)n1` [Compound C37], on CXCR4 [2], the IC50 turned out to be 12 nM.

`Cc1nc(CN2CCC[C@H]2c2ncccc2C)cc(NCCN2CCOCC2)n1` [Compound C35]: at CXCR4 [2], the IC50 came out at 2.7 nM. As to `Cc1nc(CN(CCCC(=O)O)c2cccc3cccnc23)cc(N2CCN(C)CC2)n1` [Compound D30, 4-(((2-methyl-6-(4-methylpiperazin-1-yl)pyrimidin-4-yl)methyl)(quinolin-8-yl)amino)butanoic acid], the IC50 amounted to 3820 nM at CXCR4 [1] and 9.3 nM on CXCR4 [2]. Turning to `Cc1nc(CN(CCCC(=O)OC(C)(C)C)c2cccc3cccnc23)cc(N2CCN(C)CC2)n1` [Compound D29], the IC50 on CXCR4 [2] is 12.7 nM. With `Cc1nc(CN(C)[C@H]2CCCc3cccnc32)cc(N2CCN(C)CC2)n1` [Compound A42], the IC50 at CXCR4 [1] is 9.8 nM; on CXCR4 [2], 0.021 nM.
